Legend:
[1] = biological target: T1, human CaV1.2 (Homo sapiens, UniProt Q13936); assay: QPatch channel biophysics assay (channel gating, V1/2 of activation, inactivation) in CaV1.2-HEK293(AUX) cells; format: cell-based; conditions: Table 9; shift of half-way channel activation voltage V1/2
T1 construct: expressed in transfected cells; host or cells: Flp-In 293 T-Rex (HEK293), monoclonal CaV1.2-HEK293(AUX) clone 2-19B; doxycycline-induced auxiliary subunits
Source text: The monoclonal CaV1.2-HEK293(AUX) cell line constitutively expresses human CaV1.2 alpha1C (α1C) subunit (CACNA1C) and has doxycycline-inducible expression of the alpha2delta (α2Δ2) auxiliary subunit (CACNA2D2) and beta2 (02) auxiliary subunit (CACNB2). To generate the cell line, expression vectors pcDNA5.0/FRT-TO-CACNA2D2-FCS-P2A-CACNB2 and pCMV6-entry-CACNA1C were established via gene synthesis and cloning. Here, pcDNA5.0/FRT-TO plasmid is from Invitrogen, pCMV6-entry is from Origene, FCS stands for Furin Cleavage Site, P2A is a peptide self-cleavage sequence derived from porcine teschovirus-1, and FRT is the Flippase recognition target site. Next, parental line Flp-In™ 293 T-Rex (Invitrogen) was transfected with pcDNA5.0/FRT-TO-CACNA2D2-FCS-P2A-CACNB2 and Flippase vector pOG44 (Invitrogen) to establish targeted integration of the CACNA2D2-FCS-P2A-CACNB2 expression cassette into the pre-engineered FRT site in Flp-In™ 293 T-Rex. This intermediate cell line was then transfected with pCMV6-entry-CACNA1C to establish stable CACNA1C expression. Clonal isolation was achieved under Neomycin selection. A cell clone (2-19B) with good voltage-dependent Barium current (see electrophysiology methods below) was selected for characterization of CaV1.2 activators.
24 hours prior an electrophysiology experiment, doxycycline (1 μg/ml) was added to the growth medium (Table 6), and 25 μM of verapamil was co-applied to prevent calcium influx triggered cell death. Cell confluency should reach 70%-80% right before the experiment. To harvest cells (from a T175 cm^2 flask as an example), growth media were removed completely, and the cells were rinsed with 10 mL of D-PBS. D-PBS was aspirated, and 10 mL of Detachin (Genlantis) was added and the plate was placed in a 37° C. incubator for 10 minutes. Detached cells were placed into a 15 mL conical tube and spun at 1000 rpm for 2 minutes. Supernatant was removed, and cells were re-suspended in QPatch complete media (Table 7) to desired cell density of 1.5-3 million cells per QPatch run. Each experimental run uses 1.5 mL of cells.
The cells suspension was taken to the Sophion QPatch platform that uses whole-cell voltage clamp to measure barium currents conducted through CaV1.2 on single-hole QPlates. Extracellular and intracellular patch clamp solutions are described in Tables 7 and 8, respectively. A dose-response assay protocol was used to determine the maximal fold change of peak inward current (Emax) and potency (EC50) of each compound. The protocol had eight liquid periods. The first liquid period was to stabilize current amplitude, which was monitored using repetitive 200-ms voltage pulses stepping from −80 mV to 0 mV. The second liquid period was to determine baseline current amplitude in the presence of vehicle control, using a single 20-ms voltage pulse stepping from −80 mV to 0 mV. The third through eighth liquid periods were used to ascertain a 6-dose response to compound treatments, also using single 20-ms voltage pulses stepping from −80 mV to 0 mV. The EC50 was generated using the following equation Iconcentration=Ibase+(Ifull−Ibase)*c^n/(XC50^n+c^n), where c is the concentration and n is the Hill coefficient constant. Ifull is the maximal current achievable, and Ibase is 0. A channel biophysics assay protocol was used to determine channel gating properties including current-voltage relationship (IV curves), half-way channel activation voltage (V1/2), rate of channel inactivation (tau), and amplitude of tail current. Among these, V1/2 was derived from fitting equation G(V)=Gvmin+(Gvmax−Gvmin)/(1+exp(−(V−V½)/Vslope)), where G stands for conductance, Gvmin equals 0, Gvmax is the maximal conductance, and Vslope is a slope factor. G(V) was pre-calculated from equation G(V)=I(V)/(V−0.06), for each experimentally applied depolarization potential (V) and the corresponding current amplitude (I(V)), and 0.06 in the equation was the experimentally determined reversal potential in volts. […]

[2] = Compound exposure in wild-type mice (brain and blood levels); format: in vivo, C57BL/6J male mice; conditions: Table 9, mice, i.p., one hour after administration; for Kp at 1 h: male, C57BL/6J, mouse, brain (cerebellum) / blood, ip, read-out: Brain:blood ratio
Experimental: Compound administration and brain tissue collection. Wild-type C57BL/6J male mice were obtained from Jackson laboratories (Bar Harbor, ME). The acute, single-dose effects of CaV1.2 activators of the present disclosure were evaluated in male eight-week old mice (n=6 mice per compound). Each compound was dissolved in 10% PEG300, 10% Solutol, 10% Cremophore EL, and 70% Phosphate Buffered Saline and administered intraperitoneal (i.p.) at a concentration of 1 mg/kg up to 30 mg/kg depending on the compound. Animals were euthanized one hour after compound administration via exsanguination under deep anesthesia. Blood was collected in EDTA tubes for downstream analysis of drug levels. Brains were rapidly removed from the skull, and the cerebral cortex and cerebellum were regionally dissected. Cerebellar samples were snap frozen in liquid nitrogen to assess compound exposure. Cortical samples for cFos assessment were placed in 500 μl of RNAlater solution (ThermoFisher) to preserve the integrity of RNA in the sample. Samples remained in RNAlater for at least 24 hours at 4° C. before moving to −80° C. for storage before processing.
Quantification of compound exposure. Cerebellar tissue samples were homogenized in 4 ml of 20% acetonitrile and 80% Phosphate buffered saline for every 1 g of tissue (5× dilution). Tissue was homogenized using either of the following three methods: hand held probe system, TissueLyser system with 5 mm steel bead at a frequency of 30 s^−1 for 4 min, or OMNI Bead Ruptor Elite homogenizer for 30 seconds to 1 minute depending on tissue type. Tissue samples were added to a 96-well plate (12.5 uL sample) and processed for quantification by mass spectrometry.

T1 sequence (Q13936 1-2138 isoform Q13936-23): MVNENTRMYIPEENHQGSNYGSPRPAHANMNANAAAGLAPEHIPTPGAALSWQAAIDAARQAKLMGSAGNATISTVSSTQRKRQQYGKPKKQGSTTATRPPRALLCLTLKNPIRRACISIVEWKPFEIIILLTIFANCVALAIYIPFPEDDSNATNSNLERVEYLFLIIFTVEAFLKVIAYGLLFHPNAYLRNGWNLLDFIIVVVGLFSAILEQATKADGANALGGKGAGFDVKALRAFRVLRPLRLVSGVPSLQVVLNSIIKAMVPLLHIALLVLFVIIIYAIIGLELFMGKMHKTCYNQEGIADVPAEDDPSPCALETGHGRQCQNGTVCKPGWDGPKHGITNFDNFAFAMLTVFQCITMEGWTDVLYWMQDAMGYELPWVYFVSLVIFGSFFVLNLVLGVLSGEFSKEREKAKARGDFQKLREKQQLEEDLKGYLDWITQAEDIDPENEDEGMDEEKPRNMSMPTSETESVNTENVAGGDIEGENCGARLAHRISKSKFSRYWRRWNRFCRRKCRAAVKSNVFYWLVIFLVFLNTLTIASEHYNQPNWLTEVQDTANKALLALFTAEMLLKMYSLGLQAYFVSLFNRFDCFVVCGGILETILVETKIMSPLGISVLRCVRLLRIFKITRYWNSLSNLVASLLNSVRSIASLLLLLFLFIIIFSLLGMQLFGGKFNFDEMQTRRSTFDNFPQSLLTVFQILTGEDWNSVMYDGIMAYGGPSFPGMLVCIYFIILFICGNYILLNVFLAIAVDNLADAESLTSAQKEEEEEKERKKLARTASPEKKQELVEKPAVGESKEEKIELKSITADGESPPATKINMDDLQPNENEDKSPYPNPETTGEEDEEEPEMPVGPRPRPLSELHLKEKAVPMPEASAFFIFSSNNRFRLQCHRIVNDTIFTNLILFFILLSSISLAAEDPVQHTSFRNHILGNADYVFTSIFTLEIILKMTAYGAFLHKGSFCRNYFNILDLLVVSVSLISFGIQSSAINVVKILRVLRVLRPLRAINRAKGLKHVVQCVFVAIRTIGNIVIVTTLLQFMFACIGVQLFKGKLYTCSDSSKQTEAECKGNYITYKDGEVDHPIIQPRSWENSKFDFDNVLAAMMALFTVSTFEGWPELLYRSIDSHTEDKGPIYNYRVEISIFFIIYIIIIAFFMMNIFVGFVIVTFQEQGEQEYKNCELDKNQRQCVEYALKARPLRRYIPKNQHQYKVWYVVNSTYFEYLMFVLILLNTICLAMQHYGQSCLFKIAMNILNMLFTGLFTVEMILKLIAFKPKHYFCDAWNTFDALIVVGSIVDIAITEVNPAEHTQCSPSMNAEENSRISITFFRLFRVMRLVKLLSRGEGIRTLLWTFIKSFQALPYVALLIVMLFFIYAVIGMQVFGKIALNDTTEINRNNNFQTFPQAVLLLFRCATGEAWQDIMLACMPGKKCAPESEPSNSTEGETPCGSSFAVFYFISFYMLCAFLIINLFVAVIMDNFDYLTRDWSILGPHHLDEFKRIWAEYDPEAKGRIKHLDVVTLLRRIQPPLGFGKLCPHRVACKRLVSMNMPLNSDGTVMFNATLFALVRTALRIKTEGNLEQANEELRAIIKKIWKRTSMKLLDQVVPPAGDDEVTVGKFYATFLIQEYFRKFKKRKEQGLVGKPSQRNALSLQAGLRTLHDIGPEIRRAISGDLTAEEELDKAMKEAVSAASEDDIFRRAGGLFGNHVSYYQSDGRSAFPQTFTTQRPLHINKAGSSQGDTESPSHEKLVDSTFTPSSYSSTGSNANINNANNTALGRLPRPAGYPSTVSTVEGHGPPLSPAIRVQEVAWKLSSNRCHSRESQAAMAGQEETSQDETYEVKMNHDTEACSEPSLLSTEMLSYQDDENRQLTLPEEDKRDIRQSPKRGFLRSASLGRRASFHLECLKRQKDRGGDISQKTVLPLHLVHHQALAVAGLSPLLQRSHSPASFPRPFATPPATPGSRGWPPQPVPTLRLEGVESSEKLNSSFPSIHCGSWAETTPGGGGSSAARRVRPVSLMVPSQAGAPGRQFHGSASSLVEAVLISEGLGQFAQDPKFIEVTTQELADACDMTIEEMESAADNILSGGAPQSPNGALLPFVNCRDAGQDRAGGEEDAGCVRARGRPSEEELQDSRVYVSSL
T1 sequence (Q9NY47 19-1001 partner limits assumed): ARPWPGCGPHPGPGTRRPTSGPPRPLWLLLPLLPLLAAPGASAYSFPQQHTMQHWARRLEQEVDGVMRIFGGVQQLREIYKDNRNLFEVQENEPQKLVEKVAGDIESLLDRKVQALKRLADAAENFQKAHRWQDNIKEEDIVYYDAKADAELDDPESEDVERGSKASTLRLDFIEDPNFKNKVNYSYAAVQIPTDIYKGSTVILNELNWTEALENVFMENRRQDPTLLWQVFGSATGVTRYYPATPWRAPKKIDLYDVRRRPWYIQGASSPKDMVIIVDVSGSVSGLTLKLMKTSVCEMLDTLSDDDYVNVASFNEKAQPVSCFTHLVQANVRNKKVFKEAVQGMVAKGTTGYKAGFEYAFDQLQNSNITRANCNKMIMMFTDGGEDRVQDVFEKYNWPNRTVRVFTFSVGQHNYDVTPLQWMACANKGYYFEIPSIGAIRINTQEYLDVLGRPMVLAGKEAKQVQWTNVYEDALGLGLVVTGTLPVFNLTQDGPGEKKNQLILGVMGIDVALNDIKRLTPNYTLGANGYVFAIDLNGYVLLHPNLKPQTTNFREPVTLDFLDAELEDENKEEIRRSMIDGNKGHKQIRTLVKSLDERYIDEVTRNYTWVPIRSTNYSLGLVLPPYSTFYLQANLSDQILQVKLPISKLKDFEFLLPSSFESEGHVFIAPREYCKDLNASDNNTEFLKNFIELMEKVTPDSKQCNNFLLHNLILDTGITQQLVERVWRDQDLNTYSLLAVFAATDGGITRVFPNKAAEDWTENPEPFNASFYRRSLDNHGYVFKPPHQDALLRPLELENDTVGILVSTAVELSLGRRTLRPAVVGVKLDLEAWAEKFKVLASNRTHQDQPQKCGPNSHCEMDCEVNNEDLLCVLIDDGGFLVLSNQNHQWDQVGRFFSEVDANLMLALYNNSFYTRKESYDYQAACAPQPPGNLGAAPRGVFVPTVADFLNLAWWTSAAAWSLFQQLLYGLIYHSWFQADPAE
T1 sequence (Q9NY47 1002-1150 partner limits assumed): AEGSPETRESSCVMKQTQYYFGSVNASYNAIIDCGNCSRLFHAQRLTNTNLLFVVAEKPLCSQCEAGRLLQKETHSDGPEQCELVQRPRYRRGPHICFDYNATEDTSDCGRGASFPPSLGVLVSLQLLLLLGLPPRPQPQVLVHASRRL
T1 sequence (Q08289 whole entry partner): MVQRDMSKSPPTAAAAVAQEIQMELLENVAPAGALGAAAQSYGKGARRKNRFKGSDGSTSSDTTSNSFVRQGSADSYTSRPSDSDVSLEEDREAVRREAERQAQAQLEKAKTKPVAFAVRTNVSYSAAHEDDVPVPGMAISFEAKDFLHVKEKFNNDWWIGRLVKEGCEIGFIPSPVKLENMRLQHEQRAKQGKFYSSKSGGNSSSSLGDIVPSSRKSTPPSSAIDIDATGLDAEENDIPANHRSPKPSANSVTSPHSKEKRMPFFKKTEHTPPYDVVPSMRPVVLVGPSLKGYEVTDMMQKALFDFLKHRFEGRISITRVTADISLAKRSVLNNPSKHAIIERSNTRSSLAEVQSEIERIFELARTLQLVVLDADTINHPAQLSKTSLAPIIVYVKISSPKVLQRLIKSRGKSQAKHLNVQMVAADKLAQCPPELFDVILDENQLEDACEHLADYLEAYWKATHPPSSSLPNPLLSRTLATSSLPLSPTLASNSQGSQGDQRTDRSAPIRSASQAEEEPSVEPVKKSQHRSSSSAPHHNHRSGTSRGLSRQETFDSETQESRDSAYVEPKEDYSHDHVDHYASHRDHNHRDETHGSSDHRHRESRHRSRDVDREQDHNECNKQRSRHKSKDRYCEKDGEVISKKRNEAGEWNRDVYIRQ

SMILES	Biophysics voltage shift (mV) [1] [mV]	Kp at 1 h [2]	Brain:blood ratio [2]
COC(=O)C1=C(CF)NC2=C(C(=O)OC2)[C@H]1c1cc(F)cc(F)c1[C@H]1CC1(F)F (single isomer, unassigned) [Example 3, Methyl (R)-4-(2-((R or S)-2,2-difluorocyclopropyl)-3,5-difluorophenyl)-2-(fluoromethyl)-5-oxo-1,4,5,7-tetrahydrofuro[3,4-b]pyridine-3-carboxylate]	0.1	2.8	–
COC(=O)C1=C(CF)NC2=C(C(=O)CC2)[C@H]1c1cccc(F)c1[C@@H](F)CF (single isomer, unassigned) [Example 7, methyl (R)-4-(2-((R or S)-1,2-difluoroethyl)-3-fluorophenyl)-2-(fluoromethyl)-5-oxo-4,5,6,7-tetrahydro-1H-cyclopenta[b]pyridine-3-carboxylate]	−6.3	–	–
COC(=O)C1=C(CF)NC2=C(C(=O)OC2)[C@H]1c1cccc(F)c1C1CC1 (single isomer, unassigned) [Example 2]	−4.5	1.5	–
COC(=O)C1=C(CF)NC2=C(C(=O)OC2)[C@H]1c1cc(F)cc(F)c1C1CC1 (single isomer, unassigned) [Example 13]	−0.7	3.5	–
COC(=O)C1=C(CF)NC2=C(C(=O)OC2)[C@H]1c1cc(F)cc(F)c1C(F)(F)F (single isomer, unassigned) [Example 10]	−2.3	0.9	–
COC(=O)C1=C(CF)NC2=C(C(=O)OC2)[C@H]1c1cccc(F)c1[C@H]1CC1(F)F (single isomer, unassigned) [Example 1, methyl (R)-4-(2-((R or S)-2,2-difluorocyclopropyl)-3-fluorophenyl)-2-(fluoromethyl)-5-oxo-1,4,5,7-tetrahydrofuro[3,4-b]pyridine-3-carboxylate]	−5.9	2.9	–
COC(=O)C1=C(CF)NC2=C(C(=O)OC2)[C@H]1c1ccccc1OC(F)F (single isomer, unassigned) [Example 9]	−4.5	1.5	–
COC(=O)C1=C(CF)NC2=C(C(=O)OC2)[C@H]1c1cccc(F)c1[C@H](F)CF (single isomer, unassigned) [Example 6]	−6.3	1.5	–
COC(=O)C1=C(CF)NC2=C(C(=O)OC2)[C@H]1c1cccc(F)c1CC(F)F (single isomer, unassigned) [Example 11]	−5.0	1.1	–
COC(=O)C1=C(CF)NC2=C(C(=O)OC2)[C@H]1c1cc(F)cc(F)c1[C@H](F)CF (single isomer, unassigned) [Example 16, methyl (R)-4-(2-((R or S)-1,2-difluoroethyl)-3,5-difluorophenyl)-2-(fluoromethyl)-5-oxo-1,4,5,7-tetrahydrofuro[3,4-b]pyridine-3-carboxylate]	−5.8	3.2	–
COC(=O)C1=C(CF)NC2=C(C(=O)OC2)[C@H]1c1cc(F)cc(F)c1[C@H](C)F (single isomer, unassigned) [Example 5, methyl (R)-4-(3,5-difluoro-2-((R or S)-1-fluoroethyl)phenyl)-2-(fluoromethyl)-5-oxo-1,4,5,7-tetrahydrofuro[3,4-b]pyridine-3-carboxylate]	−4.6	3.3	–
COC(=O)C1=C(CF)NC2=C(C(=O)OC2)[C@H]1c1cc(F)cc(F)c1[C@H]1CC1(F)F (single isomer, unassigned) [Example 4, Methyl (R)-4-(2-((R or S)-2,2-difluorocyclopropyl)-3,5-difluorophenyl)-2-(fluoromethyl)-5-oxo-1,4,5,7-tetrahydrofuro[3,4-b]pyridine-3-carboxylate]	−4.4	–	1.4
COC(=O)C1=C(CF)NC2=C(C(=O)OC2)[C@H]1c1cc(F)ccc1C(F)(F)F (single isomer, unassigned) [Example 23]	−6.2	1.2	–
COC(=O)C1=C(CF)NC2=C(C(=O)OC2)[C@H]1c1cccc(F)c1[C@@H](C)F (single isomer, unassigned) [Example 8]	−5.4	3.5	–
COC(=O)C1=C(CF)NC2=C(C(=O)OC2)[C@H]1c1cccc(F)c1C(F)(F)F (single isomer, unassigned) [Example 17]	−6.8	2.1	–
COC(=O)C1=C(CF)NC2=C(C(=O)OC2)[C@H]1c1cc(F)cc(F)c1C(F)F (single isomer, unassigned) [Example 18]	−5.2	1	–
COC(=O)C1=C(CF)NC2=C(C(=O)CC2)[C@H]1c1cccc(F)c1C1CC1 (single isomer, unassigned) [Example 28]	−7.2	1.1	–
COC(=O)C1=C(CF)NC2=C(C(=O)OC2)[C@H]1c1cccc(F)c1C(F)F (single isomer, unassigned) [Example 15]	−5.7	1.7	–

— patent US20250304594A1, “METHYL (R)-2-(FLUOROMETHYL)-5-OXO-4-PHENYL-4,5,6,7-TETRAHYDRO-1H-CYCLOPENTA[B]PYRIDINE-3-CARBOXYLATE AND METHYL (R)-2-(FLUOROMETHYL)-5-OXO-4-PHENYL-1,4,5,7-TETRAHYDROFURO[3,4-B]PYRIDINE-3-CARBOXYLATE AS Cav1,2 ACTIVATORS” (Novartis AG, priority 2020, published 2025)
